Measurements: ChEMBL document CHEMBL3352218, “Structural basis for inhibition of mycobacterial and human adenosine kinase by 7-substituted 7-(Het)aryl-7-deazaadenine ribonucleosides” (J Med Chem, 2014)
In brackets after ≈: the same amount, converted by molar mass. Activity calls are given as the source filed them. The calls are words filed in the database; no cut-off is given here.

What was measured:
[1] = system: BJ; assay: Cytotoxicity against human BJ cells by MTT assay; type: functional
[2] = system: MRC5; assay: Cytotoxicity against human MRC5 cells by MTT assay; type: functional
[3] = target: T1, Adenosine kinase (Homo sapiens, UniProt P55263); assay: Activity of human ADK expressed in Escherichia coli BL21(DE3) cells assessed as compound phosphorylation by measuring conversion of compound to 5'-phosphate; set-up: concentration or dose not given beside the values
Target sequence in this assay (P55263 2-362 limits assumed): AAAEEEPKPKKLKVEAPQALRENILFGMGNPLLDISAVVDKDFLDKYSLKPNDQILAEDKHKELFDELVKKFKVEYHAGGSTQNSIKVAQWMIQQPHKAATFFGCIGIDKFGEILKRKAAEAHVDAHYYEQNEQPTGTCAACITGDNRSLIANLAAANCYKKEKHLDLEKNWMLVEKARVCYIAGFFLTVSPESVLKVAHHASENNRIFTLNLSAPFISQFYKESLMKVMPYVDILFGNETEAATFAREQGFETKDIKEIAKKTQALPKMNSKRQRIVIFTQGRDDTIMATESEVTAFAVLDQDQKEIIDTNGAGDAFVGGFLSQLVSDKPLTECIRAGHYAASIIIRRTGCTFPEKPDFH

[4] = target: T1, Adenosine kinase; assay: Inhibition of human ADK expressed in Escherichia coli BL21(DE3) cells using [3H]adenosine by liquid scintillation counting method
Target sequence in this assay (P55263 whole entry): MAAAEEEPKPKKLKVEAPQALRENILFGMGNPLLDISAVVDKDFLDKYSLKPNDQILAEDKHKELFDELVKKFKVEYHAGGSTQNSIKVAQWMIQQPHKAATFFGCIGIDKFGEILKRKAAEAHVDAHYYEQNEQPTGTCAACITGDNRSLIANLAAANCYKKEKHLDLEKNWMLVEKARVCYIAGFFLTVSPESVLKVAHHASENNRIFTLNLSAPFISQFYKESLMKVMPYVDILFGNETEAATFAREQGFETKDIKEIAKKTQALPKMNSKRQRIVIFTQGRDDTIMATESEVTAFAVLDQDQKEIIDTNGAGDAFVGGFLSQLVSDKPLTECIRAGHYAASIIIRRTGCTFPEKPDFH

[5] = Inhibition of Mycobacterium tuberculosis ADK expressed in Escherichia coli BL21(DE3) cells using [3H]adenosine by liquid scintillation counting method
[6] = system: Mycobacterium tuberculosis; assay: Antimycobacterial activity against Mycobacterium tuberculosis H37Rv My 331/88 assessed as microbial growth inhibition incubated for 14 days; type: functional; settings: H37Rv My 331/88, 336 h
[7] = system: Mycobacterium tuberculosis; assay: Activity of Mycobacterium tuberculosis ADK expressed in Escherichia coli BL21(DE3) cells assessed as compound phosphorylation by measuring conversion of compound to 5'-phosphate
[8] = target: T1, Adenosine kinase; assay: Binding affinity to human ADK expressed in Escherichia coli BL21(DE3) cells assessed as relative STD enhancements of signal from H-1' at 500 uM by 1H STD NMR spectroscopy
Target sequence in this assay (P55263 2-362 limits assumed): as the sequence (P55263 2-362 limits assumed) above

[9] = target: T1, Adenosine kinase; assay: Binding affinity to human ADK expressed in Escherichia coli BL21(DE3) cells assessed as relative STD enhancements of signal from H-2 at 500 uM by 1H STD NMR spectroscopy
Target sequence in this assay (P55263 2-362 limits assumed): as above

[10] = target: T1, Adenosine kinase; assay: Binding affinity to human ADK expressed in Escherichia coli BL21(DE3) cells assessed as relative STD enhancements of signal from H-8 at 500 uM by 1H STD NMR spectroscopy
Target sequence in this assay (P55263 2-362 limits assumed): as above

[11] = target: T1, Adenosine kinase; assay: Binding affinity to human ADK expressed in Escherichia coli BL21(DE3) cells assessed as relative STD enhancements of signal from Ar at 500 uM by 1H STD NMR spectroscopy
Target sequence in this assay (P55263 2-362 limits assumed): as above

[12] = system: Mycobacterium tuberculosis; assay: Binding affinity to Mycobacterium tuberculosis ADK expressed in Escherichia coli BL21(DE3) cells assessed as relative STD enhancements of signal from H-1' at 500 uM by 1H STD NMR spectroscopy
[13] = system: Mycobacterium tuberculosis; assay: Binding affinity to Mycobacterium tuberculosis ADK expressed in Escherichia coli BL21(DE3) cells assessed as relative STD enhancements of signal from H-2 at 500 uM by 1H STD NMR spectroscopy
[14] = system: Mycobacterium tuberculosis; assay: Binding affinity to Mycobacterium tuberculosis ADK expressed in Escherichia coli BL21(DE3) cells assessed as relative STD enhancements of signal from H-8 at 500 uM by 1H STD NMR spectroscopy
[15] = system: Mycobacterium tuberculosis; assay: Binding affinity to Mycobacterium tuberculosis ADK expressed in Escherichia coli BL21(DE3) cells assessed as relative STD enhancements of signal from Ar at 500 uM by 1H STD NMR spectroscopy
[16] = system: Mycobacterium tuberculosis; assay: Binding affinity to Mycobacterium tuberculosis ADK expressed in Escherichia coli BL21(DE3) cells assessed as relative STD enhancements of signal from Ar' at 500 uM by 1H STD NMR spectroscopy
[17] = target: T1, Adenosine kinase; assay: Binding affinity to free human ADK expressed in Escherichia coli BL21(DE3) cells by two dimensional 15N/1H triple-resonance HSQC NMR spectroscopy
Target sequence in this assay (P55263 2-362 limits assumed): as above

[18] = target: T1, Adenosine kinase; assay: Binding affinity to human ADK expressed in Escherichia coli BL21(DE3) cells in presence of adenosine by two dimensional 15N/1H triple-resonance HSQC NMR spectroscopy
[19] = target: T1, Adenosine kinase; assay: Binding affinity to human ADK expressed in Escherichia coli BL21(DE3) cells in presence of ATPgammaS by two dimensional 15N/1H triple-resonance HSQC NMR spectroscopy
[20] = target: T1, Adenosine kinase; assay: Mixed uncompetitive inhibition of human ADK expressed in Escherichia coli BL21(DE3) cells using varying ATP levels by Lineweaver-Burk plot
[21] = system: Mycobacterium tuberculosis; assay: Mixed competitive inhibition of Mycobacterium tuberculosis ADK expressed in Escherichia coli BL21(DE3) cells using varying ATP levels by Lineweaver-Burk plot
[22] = target: T1, Adenosine kinase; assay: Mixed competitive inhibition of human ADK expressed in Escherichia coli BL21(DE3) cells using varying adenosine levels by Lineweaver-Burk plot
[23] = system: Mycobacterium tuberculosis; assay: Mixed competitive inhibition of Mycobacterium tuberculosis ADK expressed in Escherichia coli BL21(DE3) cells using varying adenosine levels by Lineweaver-Burk plot
[24] = system: Mycobacterium tuberculosis; assay: Binding affinity to Mycobacterium tuberculosis ADK expressed in Escherichia coli BL21(DE3) cells assessed as relative STD enhancements of signal from Ar'' at 500 uM by 1H STD NMR spectroscopy

Compound	CC50 [1] [µM]	CC50 [2] [µM]	Activity [3] [%]	IC50 [4] [µM]	IC50 [5] [µM]	MIC [6] [µM]	Activity [7]	Activity [8] [%]	Activity [9] [%]	Activity [10] [%]	Activity [11] [%]	Activity [12] [%]	Activity [13] [%]	Activity [14] [%]	Activity [15] [%]	Activity [16] [%]	Activity [17]	Activity [18]	Activity [19]	further results
Nc1ncnc2c1c(-c1nccs1)cn2[C@@H]1O[C@H](CO)[C@@H](O)[C@H]1O	> 100	25.1	3	2.3	4.5	125 (≈ 43.7 µg/mL)	inactive	100	57	41	52	100	37	33	34	45	Active	Active	Active	
C#Cc1cn([C@@H]2O[C@H](CO)[C@@H](O)[C@H]2O)c2ncnc(N)c12	43.1	13.4	62		0.33	8 (≈ 2.32 µg/mL)	inactive	100	33	17		100	63	54			Active	Active	Active	inhibition [20]: Active; inhibition [21]: Active; inhibition [22]: Active; inhibition [23]: Active
Nc1ncnc2c1c(-c1ccco1)cn2[C@@H]1O[C@H](CO)[C@@H](O)[C@H]1O	18.3	9.49	8	> 5	2.1	62.5 (≈ 20.8 µg/mL)	inactive	100	64	36	74	100	43	29	38	31	Active	Active	Active	Activity [24]: 39%
CC(C)c1cccc(-c2cn([C@@H]3O[C@H](CO)[C@@H](O)[C@H]3O)c3ncnc(N)c23)c1	> 100	> 100		3.3	2.33	32 (≈ 12.3 µg/mL)	inactive	100	72	72	52	100	42	42	37		Active	Active	Active	
Nc1ncnc2c1c(-c1cccc3c1Oc1ccccc1S3)cn2[C@@H]1O[C@H](CO)[C@@H](O)[C@H]1O	> 100	95.1		> 20	0.3	16 (≈ 7.43 µg/mL)	inactive	100	33	39	60	100	50	68	83		Active	Active	Active	
